Experimental data: patent US6103709A (priority 1998, dated 2000)

Columns and labels:
[1] = test system: VDRnuc; test: Genomic response (summary classification); conditions: Yes/No, Tables 1 and 6
[2] = molecular target: T1, human vitamin D-binding protein (hDBP) (Homo sapiens, UniProt P02774); test: Relative Competitive Index assay, vitamin D-binding protein; conditions: for Vit D Binding Protein (RCI): RCI of 1α,25(OH)2 D3 set to 100, 4° C., pH 7.4; for Binding to DBP relative to 1α,25(OH)2 D3 (RCI, FIG. 7): 1α,25(OH)2 D3 = 100%, mean of three determinations; for DBP binding (in words): compared with 1α,25(OH)2 D3
T1 sequence (P02774 17-474): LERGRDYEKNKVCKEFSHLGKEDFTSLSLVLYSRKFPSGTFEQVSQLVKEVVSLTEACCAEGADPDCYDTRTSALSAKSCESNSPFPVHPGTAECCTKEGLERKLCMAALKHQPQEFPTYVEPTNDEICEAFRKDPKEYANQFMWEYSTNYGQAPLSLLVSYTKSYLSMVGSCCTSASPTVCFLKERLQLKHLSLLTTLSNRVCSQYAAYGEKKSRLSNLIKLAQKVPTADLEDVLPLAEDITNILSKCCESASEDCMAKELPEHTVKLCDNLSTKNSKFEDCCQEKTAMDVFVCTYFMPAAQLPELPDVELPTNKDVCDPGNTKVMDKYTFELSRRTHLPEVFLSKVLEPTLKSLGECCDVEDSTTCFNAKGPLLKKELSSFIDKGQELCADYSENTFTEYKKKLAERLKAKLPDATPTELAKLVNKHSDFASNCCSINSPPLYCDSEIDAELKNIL
From the text: The compared analogs are 14α,15α-methano-1α,25(OH)2 D3 (LO), 22(m(dimethylhydroxymethyl)phenyl)-23,24,25,26,27-pentanor-1α- OH-D3 (EV) and (22R)-1,25(OH)2 -22,23,diene-D3 (HR), all conformationally flexible genomic agonists. By definition the RCI for 1α,25(OH)2 D3 is set to 100%. The data seen in FIG. 7 represent the mean of three determinations.
Vitamin D-Binding Protein Assay Relative Competitive Index
This example describes a Relative Competitive Index Assay used for determination of analogs binding affinity to vitamin D-binding protein.
Phase separation was then obtained by the addition of 0.5 ml of cold dextran-coated charcoal.
The data was plotted as [competitor]/[[^3 H]25(OH)D3 ] vs. 1/[fraction bound]. The RCI was calculated as [slope of competitor]/[slopefor 25(OH)D3 ]×100. Results are seen in FIG. 7. Although each analog was assayed in competition with [^3 H]25(OH)D3, the data are expressed as relative to the binding of 1α,25(OH)2 D3, with its RCI set to 100.

[3] = test system: VDRmem; test: Rapid response (summary classification); conditions: for Rapid Response: Yes/No, Tables 1 and 6
[4] = test system: vitamin D-deficient chick; test: Intestinal Ca2+ absorption (ICA) in vitamin D-deficient chick; type: in vivo; conditions: i.m.; for Classic Vit D Responses ICA: relative to 100 pmol 1α,25(OH)2 D3 = 100%, 12 h before assay; for ICA (in words): vitamin D-deficient chick
Description: A primary fundamental physiological property of vitamin D and particularly 1α,25(OH)2 D3 is its ability to stimulate the intestinal absorption of calcium and facilitate the availability of dietary calcium to the organism. Intestinal absorption of the calcium is measured by the intestinal calcium absorption (ICA) assay, developed in the model of vitamin-D deficient chicks. The ICA assay was used to determine the relative capability of the tested analog to stimulate intestinal Ca^2+ absorption.
(§1) Results of the testing of the analogs of the invention in vivo by the ICA and IBM assays are shown in FIG. 9 which illustrates the capability of analogs LO, EV and HR to stimulate intestinal Ca^2+ absorption (ICA) and bone Ca^2+ mobilizing activity (BCM). In this study, the analogs of 1α,25(OH) were given i.m. to vitamin D-deficient chicks 12 hours before the assay began. The activity produced by 100 pmol of 1α,25(OH)2 D3 was set to be 100% for both ICA and BCM. The dose of the analogs required to achieve a biological response for either ICA or BCM equivalent to the 100 pmol dose of 1α,25(OH)2 D3 was calculated and converted to a percentage. Results are expressed as mean +SE of groups of seven chicks. Each assay included a negative control (-D), that is no vitamin D was present, and a positive control, where vitamin D3 (+D3) was present in 3.25 nmol. […] 1α,25(OH)2 D3 and analogs LO [14α,15α-methano-1α,25(OH)2 D3 ], EV [22-(m(dimethylhydroxymethyl)phenyl)-23,24,25,26,27-pentanor-1α-OH-D3 ] and HR [(22R)-1,25(OH)2 -22,23-diene-D3 ] were administered in 0.0065, 0.065, 0.65 and 6.5 nmol as shown.
(§2) In Vivo Assays of Intestinal Calcium Absorption and Bone Calcium Mobilization
(§3) This example describes assays used for determination of analogs biological activity in intestinal calcium absorption (ICA) and bone calcium mobilization (BCM) assays.
(§4) ICA and BCM were measured in vivo in the vitamin D-deficient chick model system according to Biochem. Pharmacol., 18: 2347 (1969).
(§5) Twelve hours before assay, the chickens, which had been placed on a zero-calcium diet 48 h before assay, were injected intramuscularly with the vitamin metabolite 1α,25(OH)2 D3 or analog (1-10,000 pmoles) dissolved in 0.1 mL of ethanol/1,2-propanediol (1:1, v/v). At the time of assay, 4.0 mg of ^40 Ca^2+ +5 μCi of ^45 Ca^2+ (New England Nuclear) were placed in the duodenum of the birds lightly anesthetized with ether. After 30 min, the birds were decapitated and the blood was collected.
The radioactivity content, which is a measure of ICA, of 0.2 mL of serum was measured in a liquid scintillation counter (Beckman LS8000) to determine the amount of ^45 Ca^2+ absorbed.

[5] = test system: vitamin D-deficient chick; test: Bone Ca2+ mobilizing activity (BCM) in vitamin D-deficient chick; type: in vivo; conditions: i.m.; for Classic Vit D Responses BCM: relative to 100 pmol 1α,25(OH)2 D3 = 100%, 12 h before assay; for BCM (in words): vitamin D-deficient chick
Description: The bone calcium mobilizing (BCM) assay is also conducted in the vitamin D-deficient chick. The BCM assay determines the relative ability of the tested analog to mobilize bone calcium. The natural hormone 1α,25(OH)2 D3 is very potent in the BCM assay. For example, when 1α,25(OH)2 D3 in inappropriate amounts are used as a drug in human patients, the patient may become hypercalcemic and eventually hypercalciuria with nephrolithiasis and renal failure may develop. The BCM assay was used to determine the relative activity of the analogs of the invention to stimulate bone Ca^2+ mobilization.
as §1, §2, §3, §4, §5
BCM activity was estimated from the increase of total serum calcium concentration, as determined by atomic absorption spectrophotometry.

Structure (SMILES) | Genomic Response [1] | Vit D Binding Protein (RCI) [2] | Rapid Response [3] | Classic Vit D Responses ICA [4] [%] | ICA (in words) [4] | Classic Vit D Responses BCM [5] [%] | BCM (in words) [5] | Binding to DBP relative to 1α,25(OH)2 D3 (RCI, FIG. 7) [2] [%] | DBP binding (in words) [2] | genomic and/or rapid responses elicited (in words) [3] | RCI for DBP, times greater than 1α,25(OH)2 D3 ([2]; relative to reference 1α,25(OH)2 D3) [times]
C=C1/C(=C\C=C2/CCC[C@]3(C)[C@@H]([C@H](C)Cc4cccc(O)c4)CC[C@@H]23)C[C@@H](O)C[C@@H]1O [DE] | Yes | 980 | Yes | 0.3 | show stimulating activity in both ICA and BCM assays | 1.0 | show stimulating activity in both ICA and BCM assays |  |  |  | 
C=C1/C(=C\C=C2/CCC[C@]3(C)[C@@H]([C@H](C)Cc4ccc(O)cc4)CC[C@@H]23)C[C@@H](O)C[C@@H]1O [DF] | Yes | 1980 | Yes | 0.04 |  | 0.08 |  |  |  |  | 
C=C1/C(=C\C=C2/CCC[C@]3(C)[C@@H]([C@H](C)Cc4cccc(C(C)(C)O)c4)CC[C@@H]23)C[C@@H](O)C[C@@H]1O [EV] | Yes | 25 | Yes | 30 | show stimulating activity in both ICA and BCM assays | 8 | show stimulating activity in both ICA and BCM assays | 25 | lower than 1α,25(OH)2 D3 |  | 
CC1=C(/C=C\C2=CCC[C@@]3(C)[C@@H]2CC[C@@H]3[C@H](C)CCCC(C)(C)O)C[C@@H](O)C[C@@H]1O [GF] | Yes | 2 | Yes | 1.5 |  | < 0.1 |  |  | lower than 1α,25(OH)2 D3 |  | 
C=C1/C(=C\C=C2/CCC[C@]3(C)[C@@H]([C@H](C)CCCC(C)(C)O)CC[C@@H]23)C[C@@H](O)C[C@H]1O [HL] | No |  | No | < 0.1 |  | < 0.3 |  |  |  |  | 
C=C1/C(=C\C=C2/CCC[C@]3(C)[C@@H]([C@H](C)C=C=CC(C)(C)O)CC[C@@H]23)C[C@@H](O)C[C@@H]1O [HQ] | Yes | 11 | Yes | 2.5 |  | 1.0 |  |  | lower than 1α,25(OH)2 D3 |  | 
C=C1/C(=C\C=C2/CCC[C@]3(C)[C@@H]([C@H](C)C=C=CC(C)(C)O)CC[C@@H]23)C[C@@H](O)C[C@@H]1O [HR] | Yes | 48 | Yes | 12 |  | 0.6 |  | 48 | lower than 1α,25(OH)2 D3 |  | 
C[C@H](CCCC(C)(C)O)[C@H]1CC[C@H]2C3=CC=C4C[C@@H](O)C[C@H](O)[C@]4(C)[C@H]3CC[C@]12C [JM] | No | -0.3 | Yes | 1.8 |  | 0.8 |  |  | lower than 1α,25(OH)2 D3 | elicit solely rapid responses | 
C[C@H](CCCC(C)(C)O)[C@H]1CC[C@H]2C3=CC=C4C[C@@H](O)C[C@H](O)[C@@]4(C)[C@@H]3CC[C@]12C [JN] | No | -0.7 | Yes | 2.1 |  | 1.0 |  |  | lower than 1α,25(OH)2 D3 | elicit solely rapid responses | 
C[C@H](CCCC(C)(C)O)[C@H]1CC[C@H]2C3=CC=C4C[C@@H](O)C[C@H](O)[C@@]4(C)[C@H]3CC[C@]12C [JO] | No | 2.0 | Yes | 0.6 |  | 0.03 |  |  | lower than 1α,25(OH)2 D3 | elicit solely rapid responses | 
C[C@H](CCCC(C)(C)O)[C@H]1CC[C@H]2C3=CC=C4C[C@@H](O)C[C@H](O)[C@]4(C)[C@@H]3CC[C@]12C [JP] | No | -5.0 | Yes | 0.5 |  | 0.8 |  |  | lower than 1α,25(OH)2 D3 | elicit solely rapid responses | 
CC1=C(C=C=C2CCC[C@]3(C)[C@@H]([C@H](C)CCCC(C)(C)O)CC[C@@H]23)C[C@@H](O)C[C@@H]1O [JV] | Yes | 37 | Yes | 0.02 |  | 0.02 |  |  | lower than 1α,25(OH)2 D3 |  | 
CC1=C(C=C=C2CCC[C@]3(C)[C@@H]([C@H](C)CCCC(C)(C)O)CC[C@@H]23)C[C@@H](O)C[C@@H]1O [JW] | Yes | 700 | Yes | 0.05 |  | 0.3 |  |  |  |  | 
C=C1CC[C@H](O)C/C1=C/C=C1\CCC[C@]2(C)[C@@H]([C@H](C)Cc3ccc(O)cc3)CC[C@@H]12 [JX] | Yes | 211,000 | Yes | < 0.05 |  | < 0.05 |  |  | binds very tightly to DBP |  | 2110
C=C1CC[C@H](O)C/C1=C/C=C1\CCC[C@]2(C)[C@@H]([C@H](C)Cc3cccc(O)c3)CC[C@@H]12 [JY] | Yes | 132,000 | Yes | < 0.05 |  | < 0.05 |  |  |  |  | 
